Laboratory results: patent US11572369B2, “Bicyclic pyridine compositions and methods of using the same for cancer therapy” (UNIVERSITY OF SOUTH CAROLINA, priority 2019, dated 2023)

Tests used:
Test in all cases: KINOMEscan
Type in all cases: binding
Details in all cases: 2000 nM
[1] = target: T1, WEE2 (Homo sapiens, UniProt P0C1S8)
T1 construct: purchased KINOMEscan (DiscoveRx) panel service

[2] = target: T2, CAMK4 (Homo sapiens, UniProt Q16566)
T2 construct: DNA label (qPCR read-out); purchased KINOMEscan (ScanMAX panel service)

[3] = target: T3, PIK3C2G (Homo sapiens, UniProt O75747)
T3 construct: DNA label (for qPCR read-out); purchased DiscoveRx (KINOMEscan scanMAX service)
T3 sequence (O75747 whole entry): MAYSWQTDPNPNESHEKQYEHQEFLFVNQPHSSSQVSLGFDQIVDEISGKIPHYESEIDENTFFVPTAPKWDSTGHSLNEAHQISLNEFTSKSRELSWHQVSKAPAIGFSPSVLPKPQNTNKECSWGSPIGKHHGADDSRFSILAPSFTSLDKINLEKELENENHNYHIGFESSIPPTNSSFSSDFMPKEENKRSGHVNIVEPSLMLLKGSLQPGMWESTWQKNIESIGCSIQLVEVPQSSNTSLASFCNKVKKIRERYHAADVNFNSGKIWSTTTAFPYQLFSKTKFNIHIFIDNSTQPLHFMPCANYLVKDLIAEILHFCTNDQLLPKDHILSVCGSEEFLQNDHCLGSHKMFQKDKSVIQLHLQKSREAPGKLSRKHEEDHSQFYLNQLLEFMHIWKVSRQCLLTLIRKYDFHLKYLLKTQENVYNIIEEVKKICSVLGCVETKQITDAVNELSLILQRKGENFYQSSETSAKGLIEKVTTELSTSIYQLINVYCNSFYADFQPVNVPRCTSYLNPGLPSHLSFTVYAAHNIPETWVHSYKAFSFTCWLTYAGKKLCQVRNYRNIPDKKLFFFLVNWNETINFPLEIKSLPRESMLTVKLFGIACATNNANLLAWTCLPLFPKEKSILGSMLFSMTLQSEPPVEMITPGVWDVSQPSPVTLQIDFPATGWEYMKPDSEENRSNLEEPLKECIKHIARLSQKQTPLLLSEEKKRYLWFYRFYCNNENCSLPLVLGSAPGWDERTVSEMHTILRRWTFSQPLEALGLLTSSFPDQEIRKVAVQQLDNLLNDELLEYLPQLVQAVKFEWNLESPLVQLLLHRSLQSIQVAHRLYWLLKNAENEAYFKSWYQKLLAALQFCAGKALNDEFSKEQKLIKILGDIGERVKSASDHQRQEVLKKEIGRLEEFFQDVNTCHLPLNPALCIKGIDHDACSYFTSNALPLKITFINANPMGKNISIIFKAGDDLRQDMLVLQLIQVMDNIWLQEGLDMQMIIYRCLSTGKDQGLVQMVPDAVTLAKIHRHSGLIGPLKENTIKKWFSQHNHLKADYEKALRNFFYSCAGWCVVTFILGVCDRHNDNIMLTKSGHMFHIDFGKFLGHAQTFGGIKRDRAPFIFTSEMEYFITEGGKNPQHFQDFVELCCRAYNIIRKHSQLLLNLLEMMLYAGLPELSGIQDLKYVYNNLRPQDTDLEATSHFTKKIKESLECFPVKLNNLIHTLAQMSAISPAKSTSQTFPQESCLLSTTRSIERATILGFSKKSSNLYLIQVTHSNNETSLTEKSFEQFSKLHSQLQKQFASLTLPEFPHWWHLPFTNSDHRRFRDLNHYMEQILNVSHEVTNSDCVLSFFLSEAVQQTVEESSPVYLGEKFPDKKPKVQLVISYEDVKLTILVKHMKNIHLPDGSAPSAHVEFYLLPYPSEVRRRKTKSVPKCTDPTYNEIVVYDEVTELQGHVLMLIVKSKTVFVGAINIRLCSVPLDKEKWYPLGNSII

[4] = target: T4, GSK3B (Homo sapiens, UniProt P49841)
T4 construct: DNA label (for qPCR read-out); purchased DiscoveRx (KINOMEscan scanMAX panel, contract assay)

[5] = target: T5, NEK7 (Homo sapiens, UniProt Q8TDX7)
T5 construct: DNA label (qPCR read-out); purchased KINOMEscan (ScanMAX panel service)

[6] = target: T6, VPS34 (Homo sapiens, UniProt Q8NEB9)
T6 construct: DNA label (for qPCR read-out); purchased DiscoveRx (KINOMEscan scanMAX panel)

[7] = target: T7, CTK (Homo sapiens, UniProt P42679)
T7 construct: DNA label; purchased DiscoveRx (KINOMEscan scanMAX panel)

[8] = target: T8, GRK1 (Homo sapiens, UniProt Q15835)
T8 construct: purchased KINOMEscan (DiscoveRx)

[9] = target: MAPKAPK5 (Homo sapiens, UniProt Q8IW41)
Chain of MAPKAPK5 (Q8IW41 whole entry): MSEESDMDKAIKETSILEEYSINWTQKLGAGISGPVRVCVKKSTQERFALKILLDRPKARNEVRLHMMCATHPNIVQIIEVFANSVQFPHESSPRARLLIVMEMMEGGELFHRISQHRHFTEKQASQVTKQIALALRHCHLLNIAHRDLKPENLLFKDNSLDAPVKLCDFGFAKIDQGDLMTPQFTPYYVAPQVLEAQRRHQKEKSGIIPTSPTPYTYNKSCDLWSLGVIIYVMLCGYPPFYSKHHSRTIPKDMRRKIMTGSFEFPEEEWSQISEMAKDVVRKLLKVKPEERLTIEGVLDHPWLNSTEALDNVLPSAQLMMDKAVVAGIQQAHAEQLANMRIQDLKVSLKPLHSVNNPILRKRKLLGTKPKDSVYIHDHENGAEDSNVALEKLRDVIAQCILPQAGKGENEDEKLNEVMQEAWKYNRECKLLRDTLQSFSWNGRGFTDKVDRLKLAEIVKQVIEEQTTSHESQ

[10] = target: T9, TLK1 (Homo sapiens, UniProt Q9UKI8)
T9 construct: DNA label (qPCR read-out); purchased KINOMEscan (DiscoveRx) ScanMAX panel

[11] = target: ABL1(T315I)-nonphosphorylated (Homo sapiens, UniProt P00519, T315I)
[12] = target: T10, BRK (Homo sapiens, UniProt Q13882)
T10 construct: DNA label (for qPCR read-out); purchased KINOMEscan scanMAX panel (DiscoveRx)

[13] = target: T11, DDR1 (Homo sapiens, UniProt Q08345)
T11 construct: DNA label (qPCR read-out); purchased KINOMEscan (DiscoveRx) panel

[14] = target: T12, DCAMKL1 (Homo sapiens, UniProt O15075)
T12 construct: DNA label (qPCR read-out); purchased KINOMEscan (DiscoveRx) panel

[15] = target: T13, DAPK3 (Homo sapiens, UniProt O43293)
T13 construct: DNA label; purchased DiscoveRx (KINOMEscan scanMAX panel)

[16] = target: T14, TYRO3 (Homo sapiens, UniProt Q06418)
T14 construct: DNA label (for qPCR read-out); purchased DiscoveRx (KINOMEscan scanMAX panel)

[17] = target: T15, DAPK1 (Homo sapiens, UniProt P53355)
T15 construct: DNA label; purchased DiscoveRx (KINOMEscan scanMAX panel)
T15 sequence (P53355 whole entry): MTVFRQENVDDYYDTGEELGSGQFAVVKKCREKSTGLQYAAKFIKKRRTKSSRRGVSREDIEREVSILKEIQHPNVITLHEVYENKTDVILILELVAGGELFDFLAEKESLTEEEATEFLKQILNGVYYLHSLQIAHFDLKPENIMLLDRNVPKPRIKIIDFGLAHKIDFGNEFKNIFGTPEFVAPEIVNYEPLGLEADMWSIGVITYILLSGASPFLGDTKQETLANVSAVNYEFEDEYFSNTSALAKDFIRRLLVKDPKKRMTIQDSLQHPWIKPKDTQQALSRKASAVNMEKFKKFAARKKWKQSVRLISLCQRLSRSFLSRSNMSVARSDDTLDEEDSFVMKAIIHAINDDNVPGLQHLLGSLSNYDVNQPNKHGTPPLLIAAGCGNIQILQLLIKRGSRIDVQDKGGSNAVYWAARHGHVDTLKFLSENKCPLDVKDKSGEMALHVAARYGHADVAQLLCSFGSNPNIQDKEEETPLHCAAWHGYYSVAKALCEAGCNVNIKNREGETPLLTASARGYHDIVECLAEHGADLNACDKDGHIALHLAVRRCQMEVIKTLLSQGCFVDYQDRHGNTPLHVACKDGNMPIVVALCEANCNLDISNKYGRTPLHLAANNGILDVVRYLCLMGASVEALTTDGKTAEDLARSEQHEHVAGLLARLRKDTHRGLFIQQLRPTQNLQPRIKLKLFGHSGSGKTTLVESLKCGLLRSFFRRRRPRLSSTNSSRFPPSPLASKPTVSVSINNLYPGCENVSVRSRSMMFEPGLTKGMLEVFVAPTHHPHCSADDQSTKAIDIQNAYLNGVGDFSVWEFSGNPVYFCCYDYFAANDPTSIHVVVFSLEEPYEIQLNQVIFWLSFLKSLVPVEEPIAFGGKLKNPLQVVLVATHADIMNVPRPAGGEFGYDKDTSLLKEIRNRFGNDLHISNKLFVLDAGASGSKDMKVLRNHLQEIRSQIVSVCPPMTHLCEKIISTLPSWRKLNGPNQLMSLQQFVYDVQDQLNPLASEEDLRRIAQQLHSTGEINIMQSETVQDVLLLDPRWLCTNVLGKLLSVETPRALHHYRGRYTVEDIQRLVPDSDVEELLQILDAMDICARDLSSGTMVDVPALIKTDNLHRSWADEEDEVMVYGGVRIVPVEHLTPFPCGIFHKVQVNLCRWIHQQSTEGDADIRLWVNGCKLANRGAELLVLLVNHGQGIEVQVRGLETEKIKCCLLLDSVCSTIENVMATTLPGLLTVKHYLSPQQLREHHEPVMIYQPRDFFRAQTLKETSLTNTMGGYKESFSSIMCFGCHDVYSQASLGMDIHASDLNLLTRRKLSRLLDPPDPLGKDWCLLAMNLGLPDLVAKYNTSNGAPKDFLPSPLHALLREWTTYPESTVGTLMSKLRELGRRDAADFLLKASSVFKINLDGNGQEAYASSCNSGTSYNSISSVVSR

[18] = target: T16, EPHA2 (Homo sapiens, UniProt P29317)
T16 construct: purchased DiscoveRx (KINOMEscan scanMAX panel)

[19] = target: T17, CDKL1 (Homo sapiens, UniProt Q00532)
T17 construct: purchased DiscoverX (KINOMEscan service)

[20] = target: T18, ASK2 (Homo sapiens, UniProt O95382)
T18 construct: DNA label (qPCR read-out); purchased KINOMEscan scanMAX panel (DiscoveRx)

[21] = target: T19, BRAF(V600E) (Homo sapiens, UniProt P15056, V600E)
T19 construct: DNA label (for qPCR read-out); purchased KINOMEscan scanMAX panel (DiscoveRx)

[22] = target: ABL1(F317L)-phosphorylated (Homo sapiens, UniProt P00519, F317L)
[23] = target: T20, NEK6 (Homo sapiens, UniProt Q9HC98)
T20 construct: DNA label (qPCR read-out); purchased KINOMEscan (ScanMAX panel service)

[24] = target: T21, INSRR (Homo sapiens, UniProt P14616)
T21 construct: DNA label (qPCR read-out); purchased KINOMEscan (DiscoveRx) ScanMAX panel

[25] = target: ABL1(M351T)-phosphorylated (Homo sapiens, UniProt P00519, M351T)
[26] = target: T22, RET (Homo sapiens, UniProt P07949)
T22 construct: purchased DiscoveRx (KINOMEscan scanMAX panel)
T22 sequence (P07949 29-1114): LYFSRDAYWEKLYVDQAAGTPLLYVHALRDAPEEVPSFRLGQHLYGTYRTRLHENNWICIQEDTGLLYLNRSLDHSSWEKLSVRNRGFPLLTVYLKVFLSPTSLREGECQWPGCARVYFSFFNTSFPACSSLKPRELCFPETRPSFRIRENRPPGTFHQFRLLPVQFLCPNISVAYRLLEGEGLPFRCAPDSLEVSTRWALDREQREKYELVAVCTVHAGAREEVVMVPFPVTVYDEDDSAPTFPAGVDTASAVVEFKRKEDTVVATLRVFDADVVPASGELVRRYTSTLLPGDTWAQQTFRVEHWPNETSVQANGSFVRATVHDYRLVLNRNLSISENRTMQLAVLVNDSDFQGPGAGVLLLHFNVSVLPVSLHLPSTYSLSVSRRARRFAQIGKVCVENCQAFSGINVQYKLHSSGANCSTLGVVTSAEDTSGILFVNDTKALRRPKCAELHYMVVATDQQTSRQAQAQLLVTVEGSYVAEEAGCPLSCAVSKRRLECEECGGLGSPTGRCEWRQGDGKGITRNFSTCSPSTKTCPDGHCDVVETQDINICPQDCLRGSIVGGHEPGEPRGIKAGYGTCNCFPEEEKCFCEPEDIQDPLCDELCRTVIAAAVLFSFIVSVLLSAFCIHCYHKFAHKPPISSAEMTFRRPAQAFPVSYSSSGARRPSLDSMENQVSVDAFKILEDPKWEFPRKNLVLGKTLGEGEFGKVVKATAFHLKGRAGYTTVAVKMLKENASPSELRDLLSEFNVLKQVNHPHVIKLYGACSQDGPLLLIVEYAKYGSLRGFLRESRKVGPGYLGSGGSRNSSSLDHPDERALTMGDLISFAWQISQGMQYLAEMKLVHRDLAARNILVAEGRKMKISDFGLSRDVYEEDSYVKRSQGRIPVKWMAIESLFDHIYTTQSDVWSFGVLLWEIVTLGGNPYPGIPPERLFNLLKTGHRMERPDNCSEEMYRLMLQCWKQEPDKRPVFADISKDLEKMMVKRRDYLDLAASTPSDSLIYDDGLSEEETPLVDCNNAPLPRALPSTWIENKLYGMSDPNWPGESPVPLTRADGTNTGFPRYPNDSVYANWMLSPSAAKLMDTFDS

[27] = target: T23, AMPK-alpha1 (Homo sapiens, UniProt Q13131)
T23 construct: DNA label (qPCR read-out); purchased KINOMEscan scanMAX panel (DiscoveRx)

[28] = target: T24, IRAK1 (Homo sapiens, UniProt P51617)
T24 construct: DNA label (qPCR read-out); purchased KINOMEscan (DiscoveRx) ScanMAX panel

[29] = target: ABL1(H396P)-phosphorylated (Homo sapiens, UniProt P00519, H396P)
[30] = target: T25, STK39 (Homo sapiens, UniProt Q9UEW8)
T25 construct: DNA label (for qPCR read-out); purchased DiscoveRx (KINOMEscan scanMAX panel, contract assay)

[31] = target: T26, KIT(L576P) (Homo sapiens, UniProt P10721, L576P)
T26 construct: DNA label (for qPCR read-out); purchased DiscoveRx (KINOMEscan scanMAX panel)

[32] = target: T27, KIT(V559D, T670I) (Homo sapiens, UniProt P10721, T670I/V559D)
T27 construct: purchased KINOMEscan (DiscoveRx) panel service

[33] = target: T28, PHKG2 (Homo sapiens, UniProt P15735)
T28 construct: DNA label (for qPCR read-out); purchased DiscoveRx (KINOMEscan scanMAX service)

[34] = target: T29, PIK3CA(Q546K) (Homo sapiens, UniProt P42336, Q546K)
T29 construct: DNA label; purchased DiscoveRx (KINOMEscan scanMAX panel)

[35] = target: T30, PRKG2 (Homo sapiens, UniProt Q13237)
T30 construct: purchased DiscoveRx (KINOMEscan scanMAX panel)

[36] = target: T31, CSNK2A1 (Homo sapiens, UniProt P68400)
T31 construct: DNA label; purchased DiscoveRx (KINOMEscan scanMAX panel)

T1 sequence (P0C1S8 whole entry): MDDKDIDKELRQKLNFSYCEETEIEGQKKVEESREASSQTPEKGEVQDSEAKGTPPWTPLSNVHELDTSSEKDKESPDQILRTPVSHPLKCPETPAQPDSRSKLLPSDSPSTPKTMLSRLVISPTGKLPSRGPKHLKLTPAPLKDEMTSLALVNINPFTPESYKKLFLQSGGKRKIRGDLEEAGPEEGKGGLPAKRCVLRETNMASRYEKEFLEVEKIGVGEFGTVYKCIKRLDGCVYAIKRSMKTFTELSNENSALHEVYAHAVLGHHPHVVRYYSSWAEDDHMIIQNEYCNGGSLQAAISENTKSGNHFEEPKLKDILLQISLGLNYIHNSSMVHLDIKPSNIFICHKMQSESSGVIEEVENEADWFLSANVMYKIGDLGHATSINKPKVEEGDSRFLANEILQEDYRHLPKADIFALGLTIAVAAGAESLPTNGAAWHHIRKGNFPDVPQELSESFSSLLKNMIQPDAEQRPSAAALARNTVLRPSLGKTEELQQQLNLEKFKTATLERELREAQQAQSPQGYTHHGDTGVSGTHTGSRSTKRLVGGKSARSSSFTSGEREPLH

Row | SMILES | % Ctrl [1] | % Ctrl [2] | % Ctrl [3] | % Ctrl [4] | % Ctrl [5] | % Ctrl [6] | % Ctrl [7] | % Ctrl [8] | % Ctrl [9] | % Ctrl [10] | % Ctrl [11] | % Ctrl [12] | % Ctrl [13] | % Ctrl [14] | % Ctrl [15] | % Ctrl [16] | % Ctrl [17] | % Ctrl [18] | % Ctrl [19] | % Ctrl [20] | also measured
1 | CN(C)C(=O)c1ccc(N2CCCN(c3ccnc4sc(C(N)=O)c(N)c34)CC2)cc1 [15u, 3-amino-4-(4-(4-(dimethylcarbamoyl)phenyl)-1,4-diazepan-1-yl)thieno[2,3-b]pyridine-2-carboxamide] | 97 % Ctrl | 96 % Ctrl | 94 % Ctrl | 79 % Ctrl | 100 % Ctrl | 85 % Ctrl | 92 % Ctrl | 98 % Ctrl | 100 % Ctrl | 97 % Ctrl | 100 % Ctrl | 100 % Ctrl | 82 % Ctrl | 100 % Ctrl | 81 % Ctrl | 100 % Ctrl | 92 % Ctrl | 95 % Ctrl | 100 % Ctrl | 90 % Ctrl | % Ctrl [21]: 100 % Ctrl; % Ctrl [22]: 97 % Ctrl; % Ctrl [23]: 92 % Ctrl; % Ctrl [24]: 99 % Ctrl; % Ctrl [25]: 100 % Ctrl; % Ctrl [26]: 93 % Ctrl; % Ctrl [27]: 100 % Ctrl; % Ctrl [28]: 94 % Ctrl; % Ctrl [29]: 94 % Ctrl; % Ctrl [30]: 93 % Ctrl; % Ctrl [31]: 96 % Ctrl; % Ctrl [32]: 100 % Ctrl; % Ctrl [33]: 86 % Ctrl; % Ctrl [34]: 66 % Ctrl; % Ctrl [35]: 98 % Ctrl; % Ctrl [36]: 100 % Ctrl
2 | [2H]C([2H])([2H])N(C(=O)c1ccc(N2CCCN(c3ccnc4sc(C(N)=O)c(N)c34)CC2)cc1)C([2H])([2H])[2H] [15u_D6, 3-amino-4-(4-(4-(bis(methyl-d3)carbamoyl)phenyl)-1,4-diazepan-1-yl)thieno[2,3-b]pyridine-2-carboxamide] | 88 % Ctrl | 79 % Ctrl | 82 % Ctrl | 77 % Ctrl | 86 % Ctrl | 65 % Ctrl | 100 % Ctrl | 81 % Ctrl | 64 % Ctrl | 85 % Ctrl | 85 % Ctrl | 99 % Ctrl | 90 % Ctrl | 89 % Ctrl | 83 % Ctrl | 100 % Ctrl | 88 % Ctrl | 100 % Ctrl | 92 % Ctrl | 88 % Ctrl | % Ctrl [21]: 84 % Ctrl; % Ctrl [22]: 82 % Ctrl; % Ctrl [23]: 100 % Ctrl; % Ctrl [24]: 89 % Ctrl; % Ctrl [25]: 77 % Ctrl; % Ctrl [26]: 86 % Ctrl; % Ctrl [27]: 100 % Ctrl; % Ctrl [28]: 84 % Ctrl; % Ctrl [29]: 77 % Ctrl; % Ctrl [30]: 94 % Ctrl; % Ctrl [31]: 75 % Ctrl; % Ctrl [32]: 96 % Ctrl; % Ctrl [33]: 83 % Ctrl; % Ctrl [34]: 72 % Ctrl; % Ctrl [35]: 90 % Ctrl; % Ctrl [36]: 59 % Ctrl
